Measurements: US20260250318A1, “COMPOSITIONS AND METHODS FOR CROSSING THE BLOOD BRAIN BARRIER” (VOYAGER THERAPEUTICS, INC., priority 2022, published 2026)

Legend:
[1] = test system: brains, heart, liver, muscle, and DRG of the NHPs; assay: Maturation of TTM-001 and TTM-002 capsids, NGS enrichment in NHP tissues; assay type: in vivo; conditions: relative to AAV9 control
Summary of the method: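 Variants carry mutations within and flanking the loop IV peptide insert: positions 450–466 were triplet-randomized, while positions 449–466 received low-frequency point mutations. The combined pool went into two NHPs, and each peptide was scored by NGS enrichment ratio against AAV9.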

[2] = test system: brain; assay: Matured TTM-001 and TTM-002 variants, NGS enrichment in mouse brain; assay type: in vivo, mice; conditions: relative to AAV9 control
[3] = NGS fold-enrichment of matured AAV capsid variants, NHP brain, RNA
[4] = NGS fold-enrichment, DRG of NHPs
[5] = NGS fold-enrichment, RNA, brain of NHPs
[6] = NGS fold-enrichment, heart of NHPs
[7] = NGS fold-enrichment, liver DNA of NHPs
[8] = NGS fold-enrichment, liver RNA of NHPs
[9] = NGS fold-enrichment, muscle of NHPs
[10] = NGS fold-enrichment, brain of mice

Sequence | Fold Enrichment relative to AAV9, Brain (NHP) [1, 3] [fold] | Fold Enrichment relative to AAV9, DRG (NHP) ([1]; NHP DRG) [fold] | Fold Enrichment relative to AAV9, Heart (NHP) ([1]; NHP heart) [fold] | Fold Enrichment relative to AAV9, Liver DNA (NHP) ([1]; NHP liver, DNA) [fold] | Fold Enrichment relative to AAV9, Liver RNA (NHP) ([1]; NHP liver, RNA) [fold] | Fold Enrichment relative to AAV9, Muscle (NHP) ([1]; NHP muscle) [fold] | Fold Enrichment relative to AAV9, Brain (Mouse) ([2]; mouse brain) [fold] | Fold Enrichment relative to AAV9, DRG (NHP) [1, 4] [fold] | Fold Enrichment relative to AAV9, Brain (NHP) [1, 5] [fold] | Fold Enrichment relative to AAV9, Heart (NHP) [1, 6] [fold] | Fold Enrichment relative to AAV9, Liver DNA (NHP) [1, 7] [fold] | Fold Enrichment relative to AAV9, Liver RNA (NHP) [1, 8] [fold] | Fold Enrichment relative to AAV9, Muscle (NHP) [1, 9] [fold] | Fold Enrichment relative to AAV9, Brain (Mouse) [2, 10] [fold] | further results
KEVVGSGSPHSKAQNQQT | 56.371 | 0.000 | 0.000 | 0.323 | 0.000 | 0.000 | 116.964 | – | – | – | – | – | – | – | –
KGGEGSGSPHSKAQNQQT | 58.472 | 0.000 | 0.034 | 0.066 | 0.037 | 0.000 | 91.023 | – | – | – | – | – | – | – | –
KGVLGSGSPHSKAQNQQT | 54.472 | 0.000 | 0.007 | 0.189 | 0.359 | 0.027 | 145.740 | – | – | – | – | – | – | – | –
KIINGRDSPHKSGQDQQT | – | – | – | – | – | – | – | – | – | – | – | – | – | – | Fold Enrichment relative to AAV9, Brain (NHP) ([1]; NGS fold-enrichment of RNA, NHP brain): 78.773 fold; Fold Enrichment relative to AAV9, DRG (NHP) ([1]; NGS fold-enrichment, NHP DRG): 0.000 fold; Fold Enrichment relative to AAV9, Heart (NHP) ([1]; NGS fold-enrichment, NHP heart): 0.254 fold; Fold Enrichment relative to AAV9, Liver DNA (NHP) ([1]; NGS fold-enrichment, NHP liver DNA): 0.156 fold; Fold Enrichment relative to AAV9, Liver RNA (NHP) ([1]; NGS fold-enrichment, NHP liver RNA): 0.000 fold; Fold Enrichment relative to AAV9, Muscle (NHP) ([1]; NGS fold-enrichment, NHP muscle): 0.000 fold; Fold Enrichment relative to AAV9, Brain (Mouse) ([2]; NGS fold-enrichment, mouse brain): 16.132 fold
KNADGSGSPHSKAQNQQT | – | – | – | – | – | – | – | 0.000 | 60.944 | 0.000 | 0.085 | 1.239 | 0.000 | 104.503 | –
KNAIGSGSPHSKAQNQQT | 52.516 | 0.000 | 0.000 | 0.198 | 0.165 | 0.000 | 117.939 | – | – | – | – | – | – | – | –
KNALGSGSPHSKAQNQQT | – | – | – | – | – | – | – | 0.000 | 60.014 | 0.003 | 0.213 | 0.682 | 0.000 | 137.222 | –
KNCLGSGSPHSKAQNQQT | – | – | – | – | – | – | – | 0.000 | 61.442 | 0.036 | 0.026 | 1.849 | 0.000 | 82.488 | –
KNCVGSGSPHSKAQNQQT | – | – | – | – | – | – | – | 0.000 | 60.535 | 0.000 | 0.282 | 0.018 | 0.000 | 96.175 | –
KNCWGSGSPHSKAQNQQT | 57.756 | 0.000 | 0.000 | 0.092 | 0.000 | 0.000 | 59.888 | – | – | – | – | – | – | – | –
KNHIGSGSPHSKAQNQQT | – | – | – | – | – | – | – | 0.000 | 64.535 | 0.000 | 0.187 | 1.253 | 0.000 | 70.356 | –
